Measurements: ChEMBL document CHEMBL4680258, “Synthesis, characterization and carbonic anhydrase I and II inhibitory evaluation of new sulfonamide derivatives bearing dithiocarbamate” (Eur J Med Chem, 2020)

System: NIH3T3
Assay: Cytotoxicity against mouse NIH/3T3 cells assessed as reduction in cell viability incubated for 24 hrs by MTT assay
Format: cell-based
Conditions: NIH3T3, 24 h

## NS(=O)(=O)c1ccc(NC(=O)CSC(=S)N2CCN(c3ccccn3)CC2)cc1
  IC50: 18.5 µM

## NS(=O)(=O)c1ccc(NC(=O)CSC(=S)N2CCN(c3ncccn3)CC2)cc1
  IC50: 16.5 µM

## Cc1ccc(CN2CCN(C(=S)SCC(=O)Nc3ccc(S(N)(=O)=O)cc3)CC2)cc1
  IC50: 58.1 µM

## CN1CCN(C(=S)SCC(=O)Nc2ccc(S(N)(=O)=O)cc2)CC1
  IC50: 14.5 µM

## CN(C)CCN1CCN(C(=S)SCC(=O)Nc2ccc(S(N)(=O)=O)cc2)CC1
  IC50: > 1000 µM

## CN(C)CCCN1CCN(C(=S)SCC(=O)Nc2ccc(S(N)(=O)=O)cc2)CC1
  IC50: > 1000 µM
